From BindingDB's records for doi:10.1021/jm00001a008 (R. W. Johnson Pharmaceutical Research Institute, 1995)
Structures can show the parent of a compound that is named as a salt.

Experiments:
[1] = target: T1, Integrin alpha-IIb/beta-3 (Homo sapiens, UniProt P08514+P05106); assay: Inhibition of arachidonic acid-induced platelet aggregation
[2] = target: T1, Integrin alpha-IIb/beta-3; assay: Inhibition of collagen-induced platelet aggregation
[3] = target: T1, Integrin alpha-IIb/beta-3; assay: Inhibition of thrombin-induced platelet aggregation at 50 uM

T1 sequence (P05106 27-788 limits assumed): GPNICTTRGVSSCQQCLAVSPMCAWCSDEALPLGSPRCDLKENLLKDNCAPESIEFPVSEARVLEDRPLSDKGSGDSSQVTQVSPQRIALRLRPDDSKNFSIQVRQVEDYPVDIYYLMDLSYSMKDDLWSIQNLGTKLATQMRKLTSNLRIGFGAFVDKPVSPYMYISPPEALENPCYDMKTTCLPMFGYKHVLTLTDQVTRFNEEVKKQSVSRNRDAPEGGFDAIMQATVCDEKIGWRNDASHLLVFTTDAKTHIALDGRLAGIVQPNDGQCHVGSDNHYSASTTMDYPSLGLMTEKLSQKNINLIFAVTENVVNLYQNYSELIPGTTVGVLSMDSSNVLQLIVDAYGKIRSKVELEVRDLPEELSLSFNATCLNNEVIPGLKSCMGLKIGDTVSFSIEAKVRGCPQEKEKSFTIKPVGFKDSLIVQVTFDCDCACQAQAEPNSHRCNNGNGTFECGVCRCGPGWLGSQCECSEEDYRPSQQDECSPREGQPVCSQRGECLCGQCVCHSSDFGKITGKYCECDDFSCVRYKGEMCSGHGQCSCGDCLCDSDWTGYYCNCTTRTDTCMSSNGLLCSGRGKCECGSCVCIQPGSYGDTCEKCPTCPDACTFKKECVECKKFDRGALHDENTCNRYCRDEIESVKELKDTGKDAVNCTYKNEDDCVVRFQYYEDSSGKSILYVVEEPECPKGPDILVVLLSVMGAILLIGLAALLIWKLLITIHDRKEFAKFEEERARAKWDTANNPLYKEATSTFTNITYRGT
T1 sequence (P08514 32-887 limits assumed): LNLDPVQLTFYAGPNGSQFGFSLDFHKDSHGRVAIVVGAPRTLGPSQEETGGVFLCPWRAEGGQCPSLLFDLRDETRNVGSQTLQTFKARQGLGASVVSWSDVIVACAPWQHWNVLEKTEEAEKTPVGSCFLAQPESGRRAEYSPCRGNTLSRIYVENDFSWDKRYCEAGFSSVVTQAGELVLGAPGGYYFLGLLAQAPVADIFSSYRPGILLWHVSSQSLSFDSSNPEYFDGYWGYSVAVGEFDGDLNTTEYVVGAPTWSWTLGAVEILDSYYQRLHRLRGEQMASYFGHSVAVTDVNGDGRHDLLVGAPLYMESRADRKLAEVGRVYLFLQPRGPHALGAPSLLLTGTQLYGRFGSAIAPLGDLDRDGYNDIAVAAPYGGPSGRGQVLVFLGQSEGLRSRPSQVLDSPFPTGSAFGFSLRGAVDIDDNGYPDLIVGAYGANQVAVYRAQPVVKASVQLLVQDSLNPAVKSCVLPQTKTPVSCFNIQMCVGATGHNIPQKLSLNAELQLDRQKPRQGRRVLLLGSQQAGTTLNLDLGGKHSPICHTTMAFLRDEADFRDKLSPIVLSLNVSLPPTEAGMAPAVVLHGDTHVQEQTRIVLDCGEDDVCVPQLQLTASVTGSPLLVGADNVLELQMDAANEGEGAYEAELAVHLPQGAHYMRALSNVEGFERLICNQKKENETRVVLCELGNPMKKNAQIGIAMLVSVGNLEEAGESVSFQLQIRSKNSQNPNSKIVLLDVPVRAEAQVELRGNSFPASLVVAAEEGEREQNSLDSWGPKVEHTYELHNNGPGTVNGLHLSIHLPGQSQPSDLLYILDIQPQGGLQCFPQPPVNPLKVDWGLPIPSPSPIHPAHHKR
T1 sequence (P08514 891-1039 limits assumed): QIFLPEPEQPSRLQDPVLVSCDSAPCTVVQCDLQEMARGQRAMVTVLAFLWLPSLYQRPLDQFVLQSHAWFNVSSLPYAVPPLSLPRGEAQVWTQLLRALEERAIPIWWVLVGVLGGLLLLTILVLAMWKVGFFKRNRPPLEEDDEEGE

SMILES	IC50 [1] [µM]	IC50 [2] [µM]	IC50 [3] [µM]
NCCCCNC(=O)c1cnn(-c2nc(-c3cccc(C(F)(F)F)c3)cs2)c1C(F)(F)F [5-Trifluoromethyl-1-[4-(3-trifluoromethyl-phenyl)-thiazol-2-yl]-1H-pyrazole-4-carboxylic acid (4-amino-butyl)-amide; hydrochloride]	4.5	0.1	–
O=C(NCCCN1CCCCC1)c1cnn(-c2nc(-c3cccc(C(F)(F)F)c3)cs2)c1C(F)(F)F [5-Trifluoromethyl-1-[4-(3-trifluoromethyl-phenyl)-thiazol-2-yl]-1H-pyrazole-4-carboxylic acid (3-piperidin-1-yl-propyl)-amide]	12	3	–
CC(=O)Oc1ccccc1C(=O)O [2-(acetyloxy)benzoic acid]	5	> 100	–
NCCNC(=O)c1cnn(-c2nc(-c3cccc(C(F)(F)F)c3)cs2)c1C(F)(F)F [5-Trifluoromethyl-1-[4-(3-trifluoromethyl-phenyl)-thiazol-2-yl]-1H-pyrazole-4-carboxylic acid (2-amino-ethyl)-amide; hydrochloride]	–	–	11.2

The remaining compounds from weak to strong by IC50 [1], led by results:

IC50 [1] [µM]	IC50 [2] [µM]	IC50 [3] [µM]	SMILES
4.1	3.5	–	CCCNCCCNC(=O)c1cnn(-c2nc(-c3cccc(C(F)(F)F)c3)cs2)c1C(F)(F)F [5-Trifluoromethyl-1-[4-(3-trifluoromethyl-phenyl)-thiazol-2-yl]-1H-pyrazole-4-carboxylic acid (3-propylamino-propyl)-amide]
3.7	3	–	NCCCNC(=O)c1cnn(-c2nc(-c3cccc(C(F)(F)F)c3)cs2)c1C(F)(F)F [5-Trifluoromethyl-1-[4-(3-trifluoromethyl-phenyl)-thiazol-2-yl]-1H-pyrazole-4-carboxylic acid (3-amino-propyl)-amide; hydrochloride]
2.4	–	–	COc1ccc(CCNC(=O)C(CC(=O)O)NC(=O)CCCCCCCNC(=N)N)cc1 (stereo unspecified) [SC-47643]
2.1	3.5	–	CCN(CC)CCCNC(=O)c1cnn(-c2nc(-c3cccc(C(F)(F)F)c3)c(Br)s2)c1C(F)(F)F [1-[5-Bromo-4-(3-trifluoromethyl-phenyl)-thiazol-2-yl]-5-trifluoromethyl-1H-pyrazole-4-carboxylic acid (3-diethylamino-propyl)-amide]
0.4	2.5	–	CCN(CC)CCCNC(=O)c1cnn(-c2nc(-c3cccc(C(F)(F)F)c3)cs2)c1C(F)(F)F [5-Trifluoromethyl-1-[4-(3-trifluoromethyl-phenyl)-thiazol-2-yl]-1H-pyrazole-4-carboxylic acid (3-diethylamino-propyl)-amide]
